Here are results for 2 molecules from ChEMBL document CHEMBL1132039, “Isotope edited NMR studies of glycosidases: design and synthesis of a novel glycosidase inhibitor” (Bioorg Med Chem Lett, 1999).

The nature of assay [1]: Inhibitory potency against glucosidase was determined. On the set-up: species or system Saccharomyces cerevisiae.
Assay [2] has as its target Lysosomal alpha-glucosidase (Homo sapiens, UniProt P10253). Kind of assay: Inhibitory potency for alpha-glucosidase was determined at concentration up to 3.0 mM; No inhibition. On the set-up: species or system Saccharomyces cerevisiae.

A word on the Ki: it is the dissociation constant of the complex between target and ligand, obtained from inhibition or displacement. Read a low Ki as a stronger hold on the target.

In assay [1], `NCC(=O)N1C[C@H](O)[C@@H](O)[C@H](O)[C@H]1CO` yielded a Ki of 23 µM.
Take `OC[C@@H]1[C@@H](O)[C@H](O)[C@@H](O)CN1Cc1ccccc1`: the inhibition constant (Ki) entry in assay [2] was “Not Active”.
